The source of these data is patent publication US20040097565A1, “Analgesic and antiinflammatory drugs” (priority 2001, published 2004).

The test system of assay [1] is carrageenin edema, right rear limb plantar part of SD strain male rats. The experiment in a line: Carrageenin edema method (antiinflammatory action). It is filed as in vivo, rat. As to conditions: 30 mg/kg oral, 1 hour before carrageenin, limb volume 3 hours after, relative to control. Here is the method: Method: SD strain male rats (6 weeks old, Nihon Clea) were used at 6 animals per group. The carrageenin edema method was performed according to a method of Winter et al. (Proc. Soc. exp. Biol. Med., 111, 544-547, 1962). After a volume of a right rear limb plantar part was measured, a specimen [compound A: 2-ethoxy-1-[[2′-(5-oxo-2,5-dihydro-1,2,4-oxadiazol-3-yl)biphenyl-4-yl]methyl]-1H benzimidazole-7-carboxylic acid] was orally administered (1 ml/100 g), and water was additionally added to a total amount of 5 ml/rat. After one hour, 0.05 ml of a 1% carrageenin physiological saline solution was subcutaneously injected to induce edema. Whereby, a volume of a right rear limb plantar part was measured after 3 hours. The effect of a specimen was obtained by a difference of a limb volume between before carrageenin injection and after 3 hours, and calculating an inhibition rate (%) relative to a control group.

The subject of assay [2] is pain threshold at right rear limb plantar part of SHRSP strain male rats. Description: Pain threshold improving action in SHRSP rat (Randall & Selitto's method). It is filed as in vivo. As to conditions: for Pain threshold (g) before administration of compound A: baseline before oral administration. Here is the method: Pain Threshold Improving Action in SHRSP Rat (Easily Cerebral Apoplexy Developing Spontaneous Hypertension Rat)
SHRSP strain male rats (27 weeks old, Nihon Clea, 6 animals per group) were used. […] Measurement of a pain threshold value was performed according to a Randall & Selitto's method (Arch. Int. Pharmacodyn. Ther. 111, 409-419, 1957). Immediately after therefrom, a compound A [2-ethoxy-1-[[2′-(5-oxo-2,5-dihydro-1,2,4-oxadoazol-3-yl)biphenyl-4-yl]methyl]-1H-benzimidazole-7-carboxylic acid] was orally administered (0.5 ml/100 g, b.w.) and, one hour after, a pain threshold value was measured. Only a solvent was orally administered to a control group. Regarding the effect of a specimen, drug efficacy assessment was performed by threshold pressure of a control group and a specimen administration group.

Assay [3] relates to acetic acid writhing in ICR strain male mice. Description: Acetic acid writhing method (analgesic action). It is filed as in vivo, mouse. Particulars: 30 mg/kg oral, 30 minutes before 0.6% acetic acid i.p., counted for 20 minutes. As for the experimental part:
Acetic Acid Writhing Method
Method: ICR strain male mice (5 weeks old, Nihon Clea) were used at 10 animals per group, and a specimen [compound A: 2-ethocy-1-[[2′-(5-oxo-2,5-dihydro-1,2,4-oxadiazol-3-yl)biphenyl-4-yl]methyl]-1H-benzimidazole-7-carboxylic acid] was orally administered (0.2 ml/10 g). After 30 minutes, a 0.6% acetic acid solution was intraperitoneally injected (0.1 ml/10 g) and, immediately, mice were placed into a transparent acryl resin observation cage, a time of writhing and stretching induced for 20 minutes therefrom was counted, and an inhibition rate (%) was calculated from average times of a control group and a specimen administration group.

Marks after values point to notes of the source that are not given here.

On to `CCOc1nc2cccc(C(=O)O)c2n1Cc1ccc(-c2ccccc2-c2nc(=O)o[nH]2)cc1` [Compound A, 2-Ethoxy-1-[[2′-(5-oxo-2,5-dihydro-1,2,4-oxadiazol-3-yl)biphenyl-4-yl]methyl]-1H-benzimidazole-7-carboxylic acid], for which the “Inhibition rate (%) of carrageenin edema” value in assay [1] is reported as 34* %. Moreover, the “Pain threshold (g) before administration of compound A” value in assay [2] (1 mg/kg group) turned out to be 210 g; in assay [2] (3 mg/kg group) it was 213 g; in assay [2] (10 mg/kg group), 212 g; in assay [2] (30 mg/kg group) it was 214 g. Besides, the “Pain threshold (g) 1 hour after administration of compound A” value in assay [2] (1 mg/kg oral) is recorded as 277* g; in assay [2] (3 mg/kg oral), 352* g; in assay [2] (10 mg/kg oral), 430* g; in assay [2] (30 mg/kg oral), 470* g. Also, in assay [3], the “Inhibition rate (%) of writhing and stretching” value is 52* %.
